The subject of series [1] is BHK-21 cells. Particulars: for Cytotoxicity CC10 (maximum non-toxic concentration): hamster.
Series [2] concerns FMDV serotype A (NP05). Briefly: microbe, parasite or virus in culture. In kind it is cell-based, Foot-and-Mouth Disease Virus. Particulars: for EC50: Foot-and-mouth disease virus, BHK-21, read-out: Antiviral Activity EC50, Normalized Delta Ct (RT-qPCR). For orientation: Real-time PCR tracks product formation cycle by cycle.
The test system of series [3] is FMDV serotype A (A/TAI/NP05/2017; NP05). Format: cell-based, Foot-and-Mouth Disease Virus.
Series [4] addresses FMDV 3D^pol (Foot-and-mouth disease virus serotype O, UniProt P03305). Briefly: cell-based. In kind it is cell-based.
Series [5] concerns FMDV serotype A (A/TAI/NP05/2017; NP05). Briefly: microbe, parasite or virus in culture. Particulars: Foot-and-mouth disease virus.
The target of series [6] is FMDV 3C^pro (Foot-and-mouth disease virus serotype O, UniProt P03305). Format: cell-based.
Series [7] is described as follows: in vitro. Particulars: hamster.
For series [8], the system named is FMDV serotype A (A/TAI/NP05/2017; NP05). Briefly: in vitro. Particulars: hamster.
In series [9] the test system is FMDV serotype A (NP05). Briefly: microbe, parasite or virus in culture. Format: cell-based, Foot-and-Mouth Disease Virus. Particulars: for EC50: BHK-21, 22 h, read-out: Antiviral Activity EC50, Viral Copy Number (RT-qPCR).
Series [10] relates to influenza A (H1N1) virus. Particulars: cited from earlier work.
Series [11] concerns influenza virus neuraminidase. Particulars: 5 µg/mL; cited from earlier work.
Setting [12] is: BHK-21, read-out: Antiviral Activity EC50, FMDV Specific-Positive Cell (IPMA).

Entries after “also recorded” stand apart in the source; their conditions may differ. Like-named read-outs stand apart in the source and are kept apart here.

Chain of FMDV 3D^pol (P03305 1863-2332 limits assumed): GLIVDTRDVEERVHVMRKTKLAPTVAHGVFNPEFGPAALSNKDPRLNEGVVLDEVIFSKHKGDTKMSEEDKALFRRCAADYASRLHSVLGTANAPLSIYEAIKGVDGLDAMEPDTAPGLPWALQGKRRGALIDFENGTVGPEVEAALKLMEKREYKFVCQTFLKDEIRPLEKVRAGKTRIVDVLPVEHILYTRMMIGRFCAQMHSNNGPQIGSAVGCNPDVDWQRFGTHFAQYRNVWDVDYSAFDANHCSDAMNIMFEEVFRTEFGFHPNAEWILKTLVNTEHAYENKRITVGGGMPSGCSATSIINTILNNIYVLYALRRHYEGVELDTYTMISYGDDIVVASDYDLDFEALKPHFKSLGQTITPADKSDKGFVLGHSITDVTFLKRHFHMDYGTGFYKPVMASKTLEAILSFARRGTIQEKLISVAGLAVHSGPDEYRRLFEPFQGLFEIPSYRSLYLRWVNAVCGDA
Chain of FMDV 3C^pro (P03305 1650-1862 limits assumed): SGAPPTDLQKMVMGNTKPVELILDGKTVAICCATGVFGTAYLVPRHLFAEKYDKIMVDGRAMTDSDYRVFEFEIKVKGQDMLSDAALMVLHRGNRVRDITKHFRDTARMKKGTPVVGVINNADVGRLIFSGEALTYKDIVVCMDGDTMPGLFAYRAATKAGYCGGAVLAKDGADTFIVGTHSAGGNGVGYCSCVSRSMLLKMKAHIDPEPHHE

On to `c1cc2c(cc1[C@H]1OC[C@H]3[C@@H]1CO[C@H]3c1ccc3c(c1)OCO3)OCO2` [(-)-Asarinin], for which the “Toxicity to BHK-21 cells in words” value in [1] (at 100 µM) is given as “moderate cytotoxicity”. Also, the “Cytotoxicity CC10 (maximum non-toxic concentration)” value in series [1] was 65.05 ± 1.81 µM. Moreover, in series [2], the “Inhibition of negative-strand RNA production” value is recorded as > 60%; the “Selective index SI, Normalized Delta Ct (RT-qPCR)” value was 31.67 ± 1.50 (30.47 to 32.87) SI = 2.86; the EC50 turned out to be 31.7 µM. Besides, the “Inhibition of FMDV infection / cytopathic effect, post-viral entry” value in series [3] was “dose-dependent inhibition”. Further, in [4], the “Fold greater potency compared to sesamin (IC50, minigenome)” value is reported as “approximately 7 fold”; the IC50 (commonly the midpoint of a concentration-inhibition curve) amounted to 10.4 µM; the “Selective index SI, GFP Signal (FMDV Minigenome)” value is 10.37 ± 1.01 (9.56 to 11.18) SI = 8.72. Moreover, the EC50 in series [5] (setting [12]) is 15.1 µM. Moreover, the EC50 in series [5] (BHK-21, read-out: Effect against FMDV infection (range of EC50 values)) was 15.1 to 36.7 µM. The “Effect on FMDV 3C^pro activity” value in series [6] is “Neither sesamin nor (-)-asarinin inhibited FMDV 3C^pro; also recorded: no activity observed”. Besides, in series [7], the CC50 is 90.4 ± 1.95 µM. Besides, the selectivity ratio in series [8] is 5.99. For the same compound, the “Selective index SI, Viral Copy Number (RT-qPCR)” value in series [9] is on record as 36.70 ± 1.57 (36.06 to 37.34) SI = 2.46. For the same compound, the EC50 in series [9] (Foot-and-mouth disease virus) was found to be 36.7 µM. For the same compound, the inhibition (as a rule, the relative decrease from the control value, in per cent) at 40 µM in [9] (Foot-and-mouth disease virus, BHK-21, read-out: Inhibition of FMDV viral copy number) came out at 50%.

On to `COc1cc(C2OCC3C(c4cc(OC)c(OC5OC(CO)C(O)C(O)C5O)c(OC)c4)OCC23)cc(OC)c1OC1OC(CO)C(O)C(O)C1O` (stereo not shown) [Eleutheroside E], for which, in series [1], the “Toxicity to BHK-21 cells in words” value is “moderate cytotoxicity” and the “Cytotoxicity CC10 (maximum non-toxic concentration)” value turned out to be 11.39 ± 1.05 µM. For the same compound, the “Inhibition of FMDV infection / cytopathic effect, post-viral entry” value in series [3] is “no potent effect”. In series [7], this compound gave a CC50 of 20.8 ± 1.31 µM.

In the case of `OC12COC(c3ccc4c(c3)OCO4)C1COC2c1ccc2c(c1)OCO2` (stereo not shown) [Paulownin], in series [1], the “Toxicity to BHK-21 cells in words” value was “mild toxicity” and the “Cytotoxicity CC10 (maximum non-toxic concentration)” value is 147.00 ± 2.167 µM. Moreover, the CC50 in [7] worked out at 860.6 ± 2.93 µM.

On to `COc1cc([C@@H]2c3cc4c(cc3[C@H](O)[C@H]3COC(=O)[C@@H]23)OCO4)cc(OC)c1OC` [Picropodophyllotoxin], for which, in series [1], the “Toxicity to BHK-21 cells in words” value is reported as “moderate cytotoxicity” and the “Cytotoxicity CC10 (maximum non-toxic concentration)” value was 50.07 ± 1.70 µM. In series [7], this compound gave a CC50 of 136 ± 2.13 µM.

As to `NC(=O)c1ncn([C@@H]2O[C@H](CO)[C@@H](O)[C@H]2O)n1` [Ribavirin, reference compound], the EC50 in [2] is 29.4 µM; in series [5] (setting [12]), 39.6 µM; in series [9] (Foot-and-mouth disease virus), 32.8 µM. The CC50 in [7] is ≥ 500 µM.

As to `c1cc2c(cc1[C@H]1OC[C@H]3[C@@H]1CO[C@@H]3c1ccc3c(c1)OCO3)OCO2` [Sesamin], in series [10], the Cytotoxicity entry is “without exhibiting cytotoxicity” and the “Inhibition of influenza A (H1N1) virus (reduced inflammatory cytokines)” value was “inhibit influenza A (H1N1) virus”. Besides, in series [1] (at 100 µM), the “Toxicity to BHK-21 cells in words” value was “mild toxicity”. Moreover, the “Cytotoxicity CC10 (maximum non-toxic concentration)” value in series [1] stood at 254.20 ± 2.40 µM. In [2], the “Selective index SI, Normalized Delta Ct (RT-qPCR)” value is given as 60.94 ± 1.79 (60.21 to 61.67) SI = 9.92 and the EC50 stood at 60.9 µM. The “Inhibition of FMDV infection / cytopathic effect, post-viral entry” value in [3] is recorded as “dose-dependent inhibition”. In series [4], the midpoint of inhibition, the IC50, lay at 74.9 µM and the “Selective index SI, GFP Signal (FMDV Minigenome)” value was 74.89 ± 1.87 (73.39 to 76.39) SI = 8.07. Further, the “Inhibition of influenza virus neuraminidase” value in series [11] is listed as “inhibited influenza virus neuraminidase”. The EC50 in series [5] (setting [12]) was determined as 53 µM. In addition, the “Effect on FMDV 3C^pro activity” value in [6] was “Neither sesamin nor (-)-asarinin inhibited FMDV 3C^pro”. In series [7], this compound returned a CC50 of 604.6 ± 2.78 µM. Also, the selectivity ratio in series [8] was 11.4. In addition, in [9], the “Inhibition of FMDV viral copy number in words” value is reported as “markedly significant inhibition” and the “Selective index SI, Viral Copy Number (RT-qPCR)” value was 82.43 ± 1.92 (81.65 to 83.21) SI = 7.33. In addition, the EC50 in [9] (Foot-and-mouth disease virus) is 82.4 µM.

For Gomisin A, the “Inhibition of FMDV infection / cytopathic effect, post-viral entry” value in series [3] is reported as “no potent effect”.

Source of the values: PMC12568301 (Veterinary Sciences, 2025).
